Earlier results in US20130004563A1, “MULTIP[…]-ADENOSYLMETHIONINE COMPOSITIONS AND RELATED METHODS” (priority 2011, published 2013).

What was measured:
[1] = not given; remark: listed apart in the source

Q: Which SAMe bioavailability (enteric-coated single unit tablets, compared with immediate release formulations) does the source give for S-adenosyl-L-methionine [SAMe] here?
A: higher

Q: What about the half-life (in the body, single dose) of the same substance?
A: approximately 6 hours

Q: And the stability in vitro [1]?
A: relatively unstable
